Data on eleven compounds can be found in PMC4267739, “Functional Characterization of Corynebacterium glutamicum Mycothiol S-Conjugate Amidase” (PLoS ONE, 2014).

Converted amounts (≈) assume the structure as drawn.

The test system of data set [1] is T1, Corynebacterium glutamicum WT(pXMJ19).
T1 construct: RES167 wild type carrying empty vector pXMJ19
The data set can be described thus: microbe, parasite or virus in culture. Set-up: species or system Corynebacterium glutamicum RES167 (pXMJ19); Broth dilution MIC in LB at 30 °C, serial 2-fold dilution, growth checked after 1 to 2 days. To be noted: LB, 30 °C, wild type with empty vector pXMJ19; for MIC: Corynebacterium glutamicum, read-out: MIC (µg ml^−1) / WT(pXMJ19). On the procedure:
Disk diffusion assays were performed for antibiotics, alkylating agents, and oxidative agents according to Rawat et al.. Briefly, cells were grown to the mid-log phase and a lawn of cells was plated onto LB plates. After the paper disks were placed into the plates, various amounts of agents (10 µl) were added to the disk. The disks were allowed to dry and the plates were incubated for 2 to 3 days. For the minimal broth dilution assay, antibiotics were serially diluted (0.5×) in LB medium (1 ml) and cells (A 600 = 1.6) were inoculated. After 1 to 2 days of incubation at 30°C, the tubes were checked for growth. The bacteriostasis growth curve assay was used to determine the sensitivity of C. glutamicum to heavy metal stress. LB-grown strains (50 µl) were transferred to LB broth (5 ml), with and without addition of various concentrations of heavy metals (Cd^2+, Ni^2+, Cr^2+ and Cu^2+) and incubated at 30°C. The cellular growth was monitored turbidimetrically (A 600) after 24 h. All assays were performed in triplicate. First, sensitivity of C. glutamicum strains to Macrolides and β-Lactams was tested. […] These observations indicate that the Mca-dependent detoxification pathway indeed plays a major role in the detoxification of rifamycin S. However, no significant difference was found in the size of growth inhibition zones around erythromycin, lincomycin and spectinomycin (all belong to […]) between WT(pXMJ19), Δmca(pXMJ19) and the complementary strain Δmca(pXMJ19-mca) (Table 3; p>0.05). Similar trend was obtained in the MIC data (Table 4). […] Bacterial strains used in this study are listed in S1 Table. Escherichia coli and C. glutamicum strains were routinely cultured in Luria-Bertani (LB) broth or on LB plates at 37°C and 30°C, respectively. For generation of mutants and maintenance of C. glutamicum, brain heart infusion broth with 0.5 M sorbitol (BHIS) was used. The C. glutamicum RES167 strain was the parent of all derivatives used in this study. In-frame deletions were generated by the method as described previously. Cell growth was monitored by measuring absorbance at 600 nm (A 600). Antibiotics were added at the following concentrations: kanamycin, 50 µg ml^−1 for E. coli and 25 µg ml^−1 for C. glutamicum; nalidixic acid, 40 µg ml^−1 for C. glutamicum; chloramphenicol, 20 µg ml^−1 for E. coli and 10 µg ml^−1 for C. glutamicum.

Data set [2] has as its system CC(=O)N[C@@H](CSCc1c(C)c(=O)n2c(=O)c(C)c(C)n12)C(=O)N[C@H]1[C@@H](O[C@@H]2[C@H](O)[C@H](O)[C@@H](O)[C@H](O)[C@H]2O)O[C@H](CO)[C@@H](O)[C@@H]1O. The data set can be described thus: purified protein. To be noted: amidase activity, 10 µM enzyme, 0-10 mM MSmB, 50 mM HEPES pH 7.5, 37°C, Table 6 prints 92.34±1.5 mM and kcat unit min^-1.
Description: fluorescamine assay of released amine, Eadie-Hofstee on C. glutamicum Mca (mycothiol S-conjugate amidase; His6-Mca)

What is called Km is the substrate concentration at which the rate is half of its maximum. Broadly, the kcat is the number of substrate molecules converted per active site and unit of time at saturation. In general, kcat/Km refers to the turnover number divided by the Michaelis constant.

With `CC1(C)S[C@@H]2[C@H](NC(=O)Cc3ccccc3)C(=O)N2[C@H]1C(=O)O` [Penicillin], the MIC in data set [1] is over 350 µg/mL.
For `CN[C@H](CC(C)C)C(=O)N[C@H]1C(=O)N[C@@H](CC(N)=O)C(=O)N[C@H]2C(=O)N[C@H]3C(=O)N[C@H](C(=O)N[C@H](C(=O)O)c4cc(O)cc(O)c4-c4cc3ccc4O)[C@H](O)c3ccc(c(Cl)c3)Oc3cc2cc(c3O[C@@H]2O[C@H](CO)[C@@H](O)[C@H](O)[C@H]2O[C@H]2C[C@](C)(N)[C@H](O)[C@H](C)O2)Oc2ccc(cc2Cl)[C@H]1O` [Vancomycin], the MIC in data set [1] was 32 µg/mL (≈ 22.1 µM).
For the compound `NC[C@@H]1O[C@H](O[C@H]2[C@@H](O)[C@H](O[C@@H]3[C@@H](O)[C@H](N)C[C@H](N)[C@H]3O[C@H]3O[C@H](CN)[C@@H](O)[C@H](O)[C@H]3N)O[C@@H]2CO)[C@H](N)[C@@H](O)[C@@H]1O` [Neomycin], in data set [1], the MIC amounted to 7.5 µg/mL (≈ 12.2 µM).
On to `CO[C@H]1/C=C/O[C@@]2(C)Oc3c(C)c(O)c4c(c3C2=O)C(=O)C=C(NC(=O)/C(C)=C\C=C\[C@H](C)[C@H](O)[C@@H](C)[C@@H](O)[C@@H](C)[C@H](OC(C)=O)[C@@H]1C)C4=O` [Rifamycin S], for which the MIC in data set [1] was 12.5 µg/mL (≈ 18 µM).
Turning to `CN[C@@H]1[C@H](O[C@H]2[C@H](O[C@H]3[C@H](O)[C@@H](O)[C@H](N=C(N)N)[C@@H](O)[C@@H]3N=C(N)N)O[C@@H](C)[C@]2(O)C=O)O[C@@H](CO)[C@H](O)[C@H]1O` [Streptomycin], the “MIC (µg ml^−1) / WT(pXMJ19)” value in data set [1] (inhibitor) amounted to 1.25 ug/mL.
In the case of `O=C(O)c1cn(C2CC2)c2cc(N3CCNCC3)c(F)cc2c1=O` [Ciprofloxacin], the MIC in data set [1] was found to be 1.56 µg/mL (≈ 4.71 µM).
Still for that read-out and setting: the result for `CN(C)[C@@H]1C(O)=C(C(N)=O)C(=O)[C@@]2(O)C(O)=C3C(=O)c4c(O)cccc4[C@@](C)(O)[C@H]3C[C@@H]12` [Tetracycline] reads 3.12 µg/mL (≈ 7.03 µM); that for `CCC[C@@H]1C[C@@H](C(=O)N[C@@H]([C@H]2O[C@H](SC)[C@H](O)[C@@H](O)[C@H]2O)[C@@H](C)O)N(C)C1` [Lincomycin], 62.5 µg/mL (≈ 154 µM).
Regarding “C. glutamicum Mca (mycothiol S-conjugate amidase; His6-Mca) (Corynebacterium glutamicum ATCC 13032)”, in data set [2], the Km was determined as 92.30 ± 1.5 mM, the kcat came out at 3.56 ± 0.9 s⁻¹ and the kcat/Km worked out at 38.5 ± 9.6 M⁻¹ s⁻¹.
In the case of `CN[C@@H]1[C@H](O)[C@H](NC)[C@H]2O[C@@]3(O)C(=O)C[C@@H](C)O[C@H]3O[C@@H]2[C@H]1O` [Spectinomycin], in data set [1], the MIC came to 128 µg/mL (≈ 385 µM).
Still for that read-out and setting: as for `CC[C@H]1OC(=O)[C@H](C)[C@@H](O[C@H]2C[C@@](C)(OC)[C@@H](O)[C@H](C)O2)[C@H](C)[C@@H](O[C@@H]2O[C@H](C)C[C@H](N(C)C)[C@H]2O)[C@](C)(O)C[C@@H](C)C(=O)[C@H](C)[C@@H](O)[C@]1(C)O` [Erythromycin], the figure is 25 µg/mL (≈ 34.1 µM).
